{"source": "patent US20080199423A1", "about": "“Methods of Using Apo2l Receptor Agonists and Ink Cell Activators” (GENENTECH, INC., priority 2004, published 2008)", "key": {"[1]": {"system": "Apo2L/TRAIL mRNA in NK cells", "assay": "RT-QPCR of Apo2L/TRAIL message in treated NK cells", "type": "cell-based, human", "settings": "NK cells treated 18 hours; normalized to RPL19", "experimental": "In another experiment, the purified NK cells were treated for 18 hours in RPMI 1640 supplemented with heat inactivated 10% FCS, penicillin, streptomycin, 10 mM sodium pyruvate, 2 mM L-glutamine and 10 mM HEPES with poly(I:C) (50 μg/ml), R-848 (5 μg/ml) or hIFN-alpha (1000 U/ml, Sigma) in the presence or absence of 10 μg/ml cycloheximide and Apo2L/TRAIL was measured in the extracted RNA. RT-PCR was performed and the amount of cDNA was quantitated by RT-QPCR analysis, normalized to RPL19, and fold induction over control is shown in FIG. 2A. Primers were designed as per instructions (Primer Express) and sequences are: hRPL19-probe: […] (SEQ ID NO:7); hRPL19-For: […] (SEQ ID NO:8); hRPL19-Rev: […] (SEQ ID NO:9); hApo2L-probe: […] (SEQ ID NO:10); hApo2L-For: […] (SEQ ID NO:11); hApo2L-Rev: […] (SEQ ID NO:12). cDNA was analyzed for expression of RPL19 and Apo2L/TRAIL by RT-QPCR (Applied Biosystems) as described in Zarember et al., J. Immunol., 168(2):554-61 (2002). Fold increase values are expressed as arbitrary units, relative to the calibrator gene RPL19."}, "[2]": {"system": "Apo2L/TRAIL protein in NK cells", "assay": "Quantitative ELISA of Apo2L/TRAIL protein in NK cell lysates or supernatants", "type": "cell-based, human", "settings": "stimulated NK cells", "experimental": "Resting and poly(I:C) stimulated NK cell lysates or their culture supernatants were assessed for the presence of Apo2L/TRAIL protein by quantitative ELISA (kit, BD Biosciences). To confirm Apo2L/TRAIL protein expression was increased following activation of NK cells with poly(I:C) or R848, an ELISA was performed."}, "4T1 cells": {"system": "4T1 cells", "assay": "51Cr release cytotoxicity assay, purified human NK cells on 4T1 target cells", "type": "cell-based, mouse", "settings": "NK cells treated for 18 hours with agent; 4 hour incubation; E:T 1:1 to 50:1", "experimental": "4T1 cells (a metastatic mammary carcinoma cell line derived from BALE/C mice, obtained from Fred Miller, Karmanos Cancer Institute) were assayed in an in vitro cytotoxicity assay to examine tumoricical effects of various Toll receptor (“TLR”) activators and NK cells. The 4T1 target cells were cultured in IDMEM medium supplemented with 10% FCS, glutamine and penicillin/streptomycin, labeled with 100 mCi ^51Cr for 1 hour at 37° C. and then washed three times with culture medium.\nTo prepare purified effector NK cells for the assay, PBMCs from healthy human donors were isolated by standard density-gradient centrifugation over Ficoll-Paque Plus (Pharmacia). CD3 positive cells were first depleted using anti-CD3 microbeads (obtained from Miltenyi), and then the NK cells were purified using anti-CD56 microbeads (Miltenyi). The purity of the NK cell preparation was 95% or higher as determined by staining with mouse anti-human CD56 PE and mouse anti-human CD14 PE conjugates (BD Biosciences). The isolated cells were cultured in RPMI 1640 supplemented with heat inactivated 10% FCS, penicillin, streptomycin, 10 mM sodium pyruvate, 2 mM L-glutamine and 10 mM HEPES.\n10^4 of the labeled 4T1 cells were added to varying numbers of purified NK cells (either untreated control NK cells or NK cells treated with specific agent) at ratios of 1:1, 3:1, 6:1, 12:1, 25:1, and 50:1, respectively. NK cells were treated for 18 hours with one of the following TLR activating agents: sBLP (1 μg/ml, Bachem); poly(I:C) (50 μg/ml, Pharmacia); E. coli 055:B5 LPS (phenol extracted, 1 μg/ml, Sigma); Flagellin (1 μg/ml, A. Gewirtz, Emory Univerity); R-848 (5 μg/ml, Invivogen); CpG oligonucleotides (2006 and 2216, 5 μM, Invivogen). The cytotoxicity assays were performed in round bottom 96 well plates, and the samples were incubated in duplicate wells for 4 hours at 37° C., 5% CO2. RPMI 1640 supplemented with heat inactivated 10% FCS, penicillin, streptomycin, 10 mM sodium pyruvate, 2 mM L-glutamine and 10 mM HEPES was used during incubation.\nAfter the 4 hour incubation, supernatants were aspirated from the wells and examined for ^51Cr release using a Gamma counter. The percent specific lysis was calculated as 100× (experimental cpm-spontaneous cpm)/(total cpm-spontaneous cpm). The data are representative of at least three experiments and <5% SD was observed.\nA cytotoxicity assay was performed as described in Example 1, except for the following modifications. Purified NK cells were treated with poly(I:C) or R-848 overnight and incubated with 4T1 cells. The role of TNF-alpha, FasL, and Apo2L/TRAIL was evaluated by preincubation of the NK cells with neutralizing antibodies to the respective ligands. The following neutralizing antibodies were added at final concentration of 2 μg/ml: anti-Fas-L (mIgG2b, R&D Systems), anti-TNF-alpha (mIgG1, Genentech), and anti-Apo2L/TRAIL (5C2, mIgG2a, ATCC HB-12258 and 1D1, mIgG2b; ATCC HB-12257). Isotype control antibodies were obtained from BD Biosciences.\nFor the cytotoxicity assays, target cells were labeled with 100 mCi ^51Cr for 1 hour at 37° C. and then washed 3 times before use. 10^4 target cells were added to varying numbers of effector cells at the indicated ratios and incubated in duplicate wells for 4 hours at 37° C., 5% CO2, and supernatants were used to determine ^51Cr released using a Gamma counter. The cytotoxicity assays were performed in round bottom 96 well plates and the percent specific lysis was calculated as 100× (experimental cpm-spontaneous cpm)/(total cpm-spontaneous cpm). The role of Apo2L/TRAIL expressed by NK cells in the lysis of target cells was evaluated using anti-Apo2L/TRAIL mAbs (5C2 and 1D1, Genentech, Inc.). Isotype control antibodies were obtained from BD Biosciences."}}}
{"substance": "poly(I:C)", "values": [{"measurement": "Increase of Apo2L/TRAIL mRNA over control", "setting": "[1]", "value": 26, "unit": "fold"}, {"measurement": "Apo2L/TRAIL protein in NK cell lysates", "setting": "[2]", "value": "present in a cell-associated form"}, {"measurement": "Apo2L/TRAIL released into supernatants", "setting": "[2]", "value": "No significant levels"}, {"measurement": "Lysis of 4T1 cells by NK cells treated with TLR activating agent", "setting": "4T1 cells", "value": "efficiently lysed"}]}
